In patent publication US9409922B2, “Imidazopyridine macrocycles as inhibitors of human immunodeficiency virus replication” (priority 2014, dated 2016):

Test system: NL-RLuc virus
Assay: Inhibition of HIV replication: NL-RLuc reporter virus in MT-2 cells, luciferase readout
Assay type: cell-based
Conditions: Human immunodeficiency virus 1, MT2, 120 h, MT-2 cells infected with NL-RLuc virus, 5 days of incubation, 10% FBS, at least 2 experiments
In short: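 Renilla luciferase reporter virus (NL4-3 nef replaced), produced in 293T cells, infected MT-2 cells with serial compound dilutions for 5 days in RPMI 1640 with 10% FBS, 10 mM HEPES pH 7.55. Luciferase measured; EC50 from median effect equation, at least 2 experiments.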

Structure (SMILES)	EC50 [nM]
CCc1c(C)c([C@H](OC(C)(C)C)C(=O)O)c2n3cc(nc13)-c1cccc(c1)-c1cc(F)ccc1O[C@@H](C)CCCCOC1(C)CCN2CC1 [Example 55, (2S)-2-(tert-Butoxy)-2-[(22S)-5-ethyl-17-fluoro-4,22,28-trimethyl-21,27-dioxa-1,7,34-triazahexacyclo[26.2.2.1^6,^9.1^10,^14.0^2,^7.0^15,^20]tetratriaconta-2,4,6(34),8,10(33),11,13,15(20),16,18-decaen-3-yl]acetic acid]	9
Cc1c([C@H](OC(C)(C)C)C(=O)O)c2n3cc(nc3c1C(C)C)-c1cccc(c1)-c1cc(F)ccc1O[C@@H](C)CCCCOC1(C)CCN2CC1 [Example 56, (2S)-2-(tert-Butoxy)-2-[(22S)-17-fluoro-4,22,28-trimethyl-5-(propan-2-yl)-21,27-dioxa-1,7,34-triazahexacyclo[26.2.2.1^6,^9.1^10,^14.0^2,^7.0^15,^20]tetratriaconta-2,4,6(34),8,10(33),11,13,15(20),16,18-decaen-3-yl]acetic acid]	72
CCc1c(C)c([C@H](OC(C)(C)C)C(=O)O)c2n3cc(nc13)-c1cccc(c1)-c1cc(F)c(F)cc1O[C@@H](C)CCCCOC1(C)CCN2CC1 [Example 57, (2S)-2-(tert-Butoxy)-2-[(22S)-5-ethyl-17,18-difluoro-4,22,28-trimethyl-21,27-dioxa-1,7,34-triazahexacyclo[26.2.2.1^6,^9.1^10,^14.0^2,^7.0^15,^20]tetratriaconta-2,4,6(34),8,10(33),11,13,15(20),16,18-decaen-3-yl]acetic acid]	13
Cc1c([C@H](OC(C)(C)C)C(=O)O)c2n3cc(nc3c1Cl)-c1cccc(c1)-c1cc(F)ccc1O[C@@H](C)CCCCOC1(C)CCN2CC1 [Example 61, (2S)-2-(tert-Butoxy)-2-[(22S)-5-chloro-17-fluoro-4,22,28-trimethyl-21,27-dioxa-1,7,34-triazahexacyclo[26.2.2.1^6,^9.1^10,^14.0^2,^7.0^15,^20]tetratriaconta-2,4,6(34),8,10(33),11,13,15(20),16,18-decaen-3-yl]acetic acid]	15
Cc1c([C@H](OC(C)(C)C)C(=O)O)c2n3cc(nc3c1C(F)F)-c1cccc(c1)-c1cc(F)ccc1O[C@@H](C)CCCCOC1(C)CCN2CC1 [Example 63, (2S)-2-(tert-Butoxy)-2-[(22S)-5-(difluoromethyl)-17-fluoro-4,22,28-trimethyl-21,27-dioxa-1,7,34-triazahexacyclo[26.2.2.1^6,^9.1^10,^14.0^2,^7.0^15,^20]tetratriaconta-2,4,6(34),8,10(33),11,13,15(20),16,18-decaen-3-yl]acetic acid]	18
CC(=O)c1c(C)c([C@H](OC(C)(C)C)C(=O)O)c2n3cc(nc13)-c1cccc(c1)-c1cc(F)ccc1O[C@@H](C)CCCCOC1(C)CCN2CC1 [Example 64, (2S)-2-[(22S)-5-Acetyl-17-fluoro-4,22,28-trimethyl-21,27-dioxa-1,7,34-triazahexacyclo[26.2.2.1^6,^9.1^10,^14.0^2,^7.0^15,^20]tetratriaconta-2,4,6(34),8,10(33),11,13,15(20),16,18-decaen-3-yl]-2-(tert-butoxy)acetic acid]	6
Cc1c([C@H](OC(C)(C)C)C(=O)O)c2n3cc(nc3c1C(C)(C)O)-c1cccc(c1)-c1cc(F)ccc1O[C@@H](C)CCCCOC1(C)CCN2CC1 [Example 65, (2S)-2-(tert-Butoxy)-2-[(22S)-17-fluoro-5-(2-hydroxypropan-2-yl)-4,22,28-trimethyl-21,27-dioxa-1,7,34-triazahexacyclo[26.2.2.1^6,^9.1^10,^14.0^2,^7.0^15,^20]tetratriaconta-2,4,6(34),8,10(33),11,13,15(20),16,18-decaen-3-yl]acetic acid]	6
